Measured values: ChEMBL document CHEMBL1201862, “PubChem BioAssay data set” (2004)
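Step 1: Grow cells in 96-well plates. Step 2: Expose to compound for 48 hours at 5 concentrations. Step 3: Interpolate endpoints linearly; if unreached, use highest concentration. GI50 is the concentration that inhibits growth by half.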 Activity calls are given as the source filed them. Cut-off read from the data, not from the text of the source: active = GI50 up to about 1.1 µM and inactive = higher.

Tests used:
Assay in all cases: NCI tumour cell line growth inhibition, 48 h
NCI-H522 = system: NCI-H522
A549 = system: A549
HCC 2998 = system: HCC 2998
RPMI-8226 = system: RPMI-8226
UACC-257 = system: UACC-257
LOX IMVI = system: LOX IMVI
U-251 = system: U-251
HOP-62 = system: HOP-62
HL-60 = system: HL-60
SK-OV-3 = system: SK-OV-3
UACC-62 = system: UACC-62
Malme-3M = system: Malme-3M
COLO 205 = system: COLO 205
HCT-15 = system: HCT-15
786-0 = system: 786-0
SW-620 = system: SW-620
DMS-114 = system: DMS-114
NCI-H23 = system: NCI-H23
HCT-116 = system: HCT-116
UO-31 = system: UO-31
NCI-H226 = system: NCI-H226
LXFL 529 = system: LXFL 529
K562 = system: K562
DMS-273 = system: DMS-273
KM-20L2 = system: KM-20L2
SN12C = system: SN12C
SF-539 = system: SF-539
SK-MEL-28 = system: SK-MEL-28
NCI-H460 = system: NCI-H460
EKVX = system: EKVX
SK-MEL-5 = system: SK-MEL-5
HT-29 = system: HT-29
M14 = system: M14
SF-295 = system: SF-295
SF-268 = system: SF-268
SR = system: SR
CCRF-CEM = system: CCRF-CEM
XF498 = system: XF498
OVCAR-8 = system: OVCAR-8
SNB-19 = system: SNB-19
ACHN = system: ACHN
TK-10 = system: TK-10
IGROV-1 = system: IGROV-1
KM12 = system: KM12
OVCAR-3 = system: OVCAR-3
MOLT-4 = system: MOLT-4
M19-MEL = system: M19-MEL
DLD-1 = system: DLD-1
SNB-75 = system: SNB-75
OVCAR-5 = system: OVCAR-5
CAKI-1 = system: CAKI-1
SK-MEL-2 = system: SK-MEL-2
OVCAR-4 = system: OVCAR-4
RXF 393 = system: RXF 393
SNB-78 = system: SNB-78
HOP-92 = system: HOP-92

Structure (SMILES): Cc1ccc(-n2cc(/C(N)=N/O)c3ccccc3c2=O)cc1
- GI50 (NCI-H522): > 100 µM (inactive)
- GI50 (A549): > 100 µM (inactive)
- GI50 (HCC 2998): > 100 µM (inactive)
- GI50 (RPMI-8226): > 100 µM (inactive)
- GI50 (UACC-257): > 100 µM (inactive)
- GI50 (LOX IMVI): > 100 µM (inactive)
- GI50 (U-251): > 100 µM (inactive)
- GI50 (HOP-62): > 100 µM (inactive)
- GI50 (HL-60): > 100 µM (inactive)
- GI50 (SK-OV-3): > 100 µM (inactive)
- GI50 (UACC-62): > 100 µM (inactive)
- GI50 (Malme-3M): > 100 µM (inactive)
- GI50 (COLO 205): > 100 µM (inactive)
- GI50 (HCT-15): > 100 µM
- GI50 (786-0): > 100 µM (inactive)
- GI50 (SW-620): > 100 µM (inactive)
- GI50 (DMS-114): > 100 µM (inactive)
- GI50 (NCI-H23): > 100 µM (inactive)
- GI50 (HCT-116): > 100 µM (inactive)
- GI50 (UO-31): > 100 µM (inactive)
- GI50 (NCI-H226): > 100 µM (inactive)
- GI50 (LXFL 529): > 100 µM (inactive)
- GI50 (K562): > 100 µM (inactive)
- GI50 (DMS-273): > 100 µM (inactive)
- GI50 (KM-20L2): > 100 µM (inactive)
- GI50 (SN12C): > 100 µM (inactive)
- GI50 (SF-539): > 100 µM (inactive)
- GI50 (SK-MEL-28): > 100 µM (inactive)
- GI50 (NCI-H460): > 100 µM (inactive)
- GI50 (EKVX): > 100 µM (inactive)
- GI50 (SK-MEL-5): > 100 µM (inactive)
- GI50 (HT-29): > 100 µM (inactive)
- GI50 (M14): > 100 µM (inactive)
- GI50 (SF-295): > 100 µM (inactive)
- GI50 (SF-268): > 100 µM (inactive)
- GI50 (SR): > 100 µM (inactive)
- GI50 (CCRF-CEM): > 100 µM (inactive)
- GI50 (XF498): > 100 µM (inactive)
- GI50 (OVCAR-8): > 100 µM (inactive)
- GI50 (SNB-19): > 100 µM (inactive)
- GI50 (ACHN): > 100 µM (inactive)
- GI50 (TK-10): > 100 µM (inactive)
- GI50 (IGROV-1): > 100 µM (inactive)
- GI50 (KM12): > 100 µM (inactive)
- GI50 (OVCAR-3): > 100 µM (inactive)
- GI50 (MOLT-4): > 100 µM (inactive)
- GI50 (M19-MEL): > 100 µM (inactive)

Structure (SMILES): Clc1ccc2c(Cl)ncnc2c1I
- GI50 (NCI-H522): 20.6 µM (inactive)
- GI50 (A549): > 100 µM (inactive)
- GI50 (HCC 2998): > 100 µM (inactive)
- GI50 (RPMI-8226): 33.7 µM (inactive)
- GI50 (DLD-1): > 100 µM (inactive)
- GI50 (UACC-257): > 100 µM (inactive)
- GI50 (LOX IMVI): > 100 µM (inactive)
- GI50 (U-251): > 100 µM (inactive)
- GI50 (HOP-62): > 100 µM (inactive)
- GI50 (HL-60): 20.1 µM (inactive)
- GI50 (SK-OV-3): > 100 µM (inactive)
- GI50 (UACC-62): 63.7 µM (inactive)
- GI50 (Malme-3M): > 100 µM (inactive)
- GI50 (COLO 205): > 100 µM (inactive)
- GI50 (HCT-15): > 100 µM
- GI50 (786-0): > 100 µM (inactive)
- GI50 (SW-620): 80 µM (inactive)
- GI50 (DMS-114): 54.3 µM (inactive)
- GI50 (NCI-H23): > 100 µM (inactive)
- GI50 (HCT-116): 76.4 µM (inactive)
- GI50 (UO-31): 67.8 µM (inactive)
- GI50 (NCI-H226): 32.4 µM (inactive)
- GI50 (SNB-75): 14.6 µM (inactive)
- GI50 (LXFL 529): 34 µM (inactive)
- GI50 (K562): 30.5 µM (inactive)
- GI50 (OVCAR-5): > 100 µM (inactive)
- GI50 (DMS-273): > 100 µM (inactive)
- GI50 (KM-20L2): > 100 µM (inactive)
- GI50 (SN12C): > 100 µM (inactive)
- GI50 (CAKI-1): 64 µM (inactive)
- GI50 (SK-MEL-28): > 100 µM (inactive)
- GI50 (NCI-H460): > 100 µM (inactive)
- GI50 (EKVX): 10.4 µM (inactive)
- GI50 (SK-MEL-5): > 100 µM (inactive)
- GI50 (HT-29): > 100 µM (inactive)
- GI50 (M14): 49.8 µM (inactive)
- GI50 (SK-MEL-2): > 100 µM (inactive)
- GI50 (SF-295): > 100 µM (inactive)
- GI50 (OVCAR-4): > 100 µM (inactive)
- GI50 (SF-268): > 100 µM (inactive)
- GI50 (RXF 393): 42 µM (inactive)
- GI50 (SR): 31.2 µM (inactive)
- GI50 (CCRF-CEM): > 10 µM (inactive)
- GI50 (XF498): 91.6 µM (inactive)
- GI50 (OVCAR-8): > 100 µM (inactive)
- GI50 (SNB-19): > 100 µM (inactive)
- GI50 (ACHN): > 10 µM (inactive)
- GI50 (TK-10): > 100 µM (inactive)
- GI50 (IGROV-1): 52.5 µM (inactive)
- GI50 (KM12): > 100 µM (inactive)
- GI50 (OVCAR-3): > 100 µM (inactive)
- GI50 (MOLT-4): 24.8 µM (inactive)
- GI50 (M19-MEL): > 100 µM (inactive)

Structure (SMILES): COC1CCCCN1C(=O)c1ccccc1 (configuration not stated)
- GI50 (A549): > 25.3 µM (inactive)
- GI50 (HCC 2998): > 25.3 µM (inactive)
- GI50 (LOX IMVI): > 25.3 µM (inactive)
- GI50 (U-251): > 25.3 µM (inactive)
- GI50 (HL-60): > 25.3 µM (inactive)
- GI50 (SK-OV-3): > 25.3 µM (inactive)
- GI50 (UACC-62): > 25.3 µM (inactive)
- GI50 (Malme-3M): > 25.3 µM (inactive)
- GI50 (HCT-15): > 25.3 µM
- GI50 (786-0): > 25.3 µM (inactive)
- GI50 (SW-620): > 25.3 µM (inactive)
- GI50 (DMS-114): > 25.3 µM (inactive)
- GI50 (NCI-H23): > 25.3 µM (inactive)
- GI50 (HCT-116): > 25.3 µM (inactive)
- GI50 (UO-31): > 25.3 µM (inactive)
- GI50 (NCI-H226): > 25.3 µM (inactive)
- GI50 (SNB-75): > 25.3 µM (inactive)
- GI50 (K562): > 25.3 µM (inactive)
- GI50 (OVCAR-5): > 25.3 µM (inactive)
- GI50 (KM-20L2): > 25.3 µM (inactive)
- GI50 (SN12C): > 25.3 µM (inactive)
- GI50 (SNB-78): > 25.3 µM (inactive)
- GI50 (CAKI-1): > 25.3 µM (inactive)
- GI50 (SK-MEL-28): > 25.3 µM (inactive)
- GI50 (SK-MEL-5): > 25.3 µM (inactive)
- GI50 (M14): > 25.3 µM (inactive)
- GI50 (SK-MEL-2): > 25.3 µM (inactive)
- GI50 (OVCAR-4): > 25.3 µM (inactive)
- GI50 (SF-268): > 25.3 µM (inactive)
- GI50 (RXF 393): > 25.3 µM (inactive)
- GI50 (SR): > 25.3 µM (inactive)
- GI50 (HOP-92): > 25.3 µM (inactive)
- GI50 (SNB-19): > 25.3 µM (inactive)
- GI50 (ACHN): > 25.3 µM (inactive)
- GI50 (TK-10): > 25.3 µM (inactive)
- GI50 (IGROV-1): > 25.3 µM (inactive)
- GI50 (KM12): > 25.3 µM (inactive)
- GI50 (OVCAR-3): > 25.3 µM (inactive)
- GI50 (MOLT-4): > 25.3 µM (inactive)

Structure (SMILES): CN1C(=O)CN2C(Cl)(Cl)C2(c2ccccc2)c2cc(Cl)ccc21 (configuration not stated)
- GI50 (NCI-H522): 31.3 µM (inactive)
- GI50 (HCC 2998): 65.3 µM (inactive)
- GI50 (RPMI-8226): > 100 µM (inactive)
- GI50 (DLD-1): 93.5 µM (inactive)
- GI50 (UACC-257): 55.1 µM (inactive)
- GI50 (LOX IMVI): > 100 µM (inactive)
- GI50 (U-251): > 100 µM (inactive)
- GI50 (HOP-62): > 100 µM (inactive)
- GI50 (SK-OV-3): > 100 µM (inactive)
- GI50 (UACC-62): > 100 µM (inactive)
- GI50 (Malme-3M): > 100 µM (inactive)
- GI50 (COLO 205): > 100 µM (inactive)
- GI50 (HCT-15): > 100 µM
- GI50 (SW-620): > 100 µM (inactive)
- GI50 (DMS-114): > 100 µM (inactive)
- GI50 (NCI-H23): 89.1 µM (inactive)
- GI50 (HCT-116): 65.3 µM (inactive)
- GI50 (UO-31): > 100 µM (inactive)
- GI50 (NCI-H226): > 100 µM (inactive)
- GI50 (LXFL 529): > 100 µM (inactive)
- GI50 (K562): 69.2 µM (inactive)
- GI50 (OVCAR-5): > 100 µM (inactive)
- GI50 (DMS-273): 87.7 µM (inactive)
- GI50 (KM-20L2): > 100 µM (inactive)
- GI50 (SN12C): > 100 µM (inactive)
- GI50 (CAKI-1): > 100 µM (inactive)
- GI50 (SK-MEL-28): > 100 µM (inactive)
- GI50 (NCI-H460): 96.2 µM (inactive)
- GI50 (EKVX): 65.8 µM (inactive)
- GI50 (SK-MEL-5): > 100 µM (inactive)
- GI50 (HT-29): 67.5 µM (inactive)
- GI50 (M14): > 100 µM (inactive)
- GI50 (SK-MEL-2): > 100 µM (inactive)
- GI50 (SF-295): 27 µM (inactive)
- GI50 (OVCAR-4): > 100 µM (inactive)
- GI50 (SF-268): > 100 µM (inactive)
- GI50 (RXF 393): > 100 µM (inactive)
- GI50 (SR): > 10 µM (inactive)
- GI50 (CCRF-CEM): 53.7 µM (inactive)
- GI50 (HOP-92): 13.5 µM (inactive)
- GI50 (OVCAR-8): > 100 µM (inactive)
- GI50 (ACHN): > 100 µM (inactive)
- GI50 (TK-10): > 100 µM (inactive)
- GI50 (IGROV-1): > 100 µM (inactive)
- GI50 (KM12): 56.5 µM (inactive)
- GI50 (OVCAR-3): > 100 µM (inactive)
- GI50 (MOLT-4): 26.9 µM (inactive)
- GI50 (M19-MEL): > 100 µM (inactive)
